The subject of the test is IL-17-SYK mediated CCL20 release, human keratinocytes. Briefly: Inhibition of IL17 mediated CCL20 release in keratinocytes. In kind it is cell-based. The conditions noted are these: single donor, n=3. As to the method: In FIG. 12, each bar represents mean and SEM for 3 replicates (n=3) of a single donor. FIG. 13 is a graph showing average weekly change in pruritus (NRS) for a placebo, and Compound 1 in the doses of 20 mg, 40 mg and 80 mg.

Each structure is given as a SMILES string.

With `COc1cc(Nc2ncc(F)c(Nc3ccc4c(n3)NC(=O)C(C)(C)O4)n2)cc(OC)c1OC` [Tamatinib, reference compound], the “inhibition of IL-17-SYK mediated CCL20 release” value is “unlike Tamatinib and Tofacitinib, Compound 1 inhibits”.

The values are drawn from US12036224B2, “Formulations, methods, kits, and dosage forms for treating atopic dermatitis and for improved stability of an active pharmaceutical ingredient” (Libertas Bio, Inc., priority 2017, dated 2024).
